Holding throughout (assay type): cell-based
Assay [1] has as its system pSTAT3 in HEPG2 (liver cancer) cells induced by IL-6. Briefly: Inhibition of pSTAT3 (IL-6 induced phosphorylation of STAT3, Phospho-STAT3 (Tyr705) Sandwich ELISA). As to conditions: Homo sapiens, 4 hours compound, then IL-6 (10 ng/mL) 30 minutes. As to the method: The experimental drugs were tested for their effect on phosphorylation of STAT3 in HEPG2 (liver cancer) cells induced by IL-6. Test compounds were dissolved in DMSO at 20 mM and diluted in a growth medium at 2× strength. Final DMSO concentration was less than 0.5%. 100 μL of cell suspension (10×10^4 cells/mL) was added to the wells of 96 well plates and allowed to adhere for 24 hours in a CO2 incubator at 37° C. Following overnight incubation, the culture medium was replaced with 100 μL of fresh growth medium and 100 μL of test compound (s), standard (Curcumin) and growth medium (untreated) wells. The plates were incubated in CO2 incubator at 37° C. for 4 hours. After compound treatment, IL-6 (10 ng/mL) was added to the wells and incubated for 30 minutes to induce pSTAT3.
At the end of the 30 minutes incubation, cells were rinsed with ice-cold PBS and lysed with 1× Cell lysis buffer containing 1 mM PMSF (provided in the kit) on ice for 5 minutes. The cells were scraped off and transferred to an appropriate tube, sonicated on ice and centrifuged for 10 minutes at 4° C. The supernatant (cell lysate) was collected and stored at −80° C. and the levels of pSTAT3 were measured in the cell lysate by Path Scan Phospho-STAT3 (Tyr705) Sandwich ELISA kit (Cell Signaling, Cat No. 7300) by following the kit instructions.
In general terms: In an ELISA, binding on a coated surface is turned into a signal by an enzyme label.

In assay [2] the test system is HCT 116 (colon), NCIH460 (lung) and U251 (glioma) cell lines. Put plainly: Anti-cancer screen (MTT growth inhibition, 48 hours).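 Further: mean GI50 across the three cell lines.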 Conditions: Homo sapiens; HCT 116, NCIH460 and U251 cell lines; MTT after 48 hours of incubation. The method, then:
The experimental drugs were screened for anti-cancer activity in three cell lines using five concentrations for each compound. The cell lines—HCT 116 (colon), NCIH460 (lung) and U251 (glioma) were maintained in DMEM containing 10% fetal bovine serum. 96-well microtiter plates are inoculated with cells in 100 μL of cell suspension (5×10^4 cells/mL) for 24 hours at 37° C., 5% CO2, 95% air and 100% relative humidity. A separate plate with these cell lines is also inoculated to determine cell viability before the addition of the compounds (T0)
Following 24-hour incubation, test compounds were added to the 96 well plates. Each plate contains one of the above cell lines and the following samples in triplicate: five different dilutions (0.01, 0.1, 1, 10 and 100 μM) of four test compounds, appropriate dilutions of a cytotoxic standard and growth medium (untreated) wells. Test compounds were dissolved in DMSO to prepare 20 mM stock solutions on the day of drug addition and serial dilutions were carried out in complete growth medium at 2× strength, such that 100 μL added to the wells gave final concentrations (0.01, 0.1, 1, 10 and 100 μM) in the well. SAHA was used as the standard drug in these experiments.
For T0 measurement, 24 hours after seeding the cells, 20 μL of 3-(4,5-dimethyl-2-thiazolyl)-2,5-diphenyl-2H-tetrazolium (MTT) solution per well was added to the ‘T0’ plate and incubated for 3 hours at 37° C. in a CO2 incubator. The plate containing cells and test compounds was treated similarly after 48 hours of incubation. After 3 hours of MTT addition, well contents were aspirated carefully followed by addition of 150 μL DMSO per well. Plates were agitated to ensure dissolution of the formazan crystals in DMSO and absorbance was read at 570 nm (A570).
Percent growth (PG) is calculated relative to the control and zero measurement wells (T0) as follows:
PG values are plotted against drug concentration to derive the following: GI50 is the concentration required to decrease PG by 50% vs control; TGI is the concentration required to decrease PG by 100% vs control and LC50 is the concentration required to decrease PG by 50% vs T0. (Mosmann T. Rapid colorimetric assay for cellular growth and survival: application to proliferation and cytotoxicity assays. (J. Immunol. Methods. 1983, 65 (1-2), 55-63; Anne Monks et al); feasibility of high-flux anticancer drug screen using a diverse panel of cultured human tumor cell lines”. (JNCI, Vol. 83, No. 11, 1991). Results for growth inhibition of synthesized compounds are given in Table-1.

Assay [3] deals with IL-6 in supernatant of NCIH 460 cells. Briefly: Measuring IL-6 in culture supernatants (ELISA). As to conditions: Homo sapiens, NCI-H460, 5 hours incubation.

For the compound `COC(=O)/C(=C/c1ccc(F)c(C)c1)c1ccc(OCC(O)CNCc2ccc(OC)cc2OC)cc1` (stereo not drawn) [Example 1, 2-{4-[3-(2,4-dimethoxybenzylamino)-2-hydroxypropoxy]phenyl}-3-(4-fluoro-3-methylphenyl)acrylic acid methyl ester], in assay [1], at 10 µM the inhibition was 22.2%.

As to `COC(=O)/C(=C/c1ccc(Cl)cc1)c1ccc(OCC(O)CNCc2ccccc2)cc1` (stereo not drawn) [Example 27, 2-{4-[3-(Benzylamino)-2-hydroxypropoxy]phenyl}-3-(4-chlorophenyl)acrylic acid methyl ester], in assay [2], the GI50 (in general, the concentration that inhibits growth by half) was found to be 6.5 µM. Moreover, in assay [3], at 10 µM the inhibition was 32.7%.

`COC(=O)/C(=C/c1ccc(SC)cc1)c1ccc(OCC(O)CNCc2ccc(OC)cc2OC)cc1` (stereo not drawn) [Example 28, 2-{4-[3-(2,4-Dimethoxybenzylamino)-2-hydroxypropoxy]phenyl}-3-(4-(methylthio)phenyl)acrylic acid methyl ester] returned a GI50 in assay [2] of 1.3 µM. Besides, in assay [3], at 10 µM the inhibition was 78.5%.

In assay [2], `COC(=O)/C(=C/c1ccc(OCC(O)CNCCOc2ccccc2OC)cc1)c1ccc(OC)cc1` (stereo not drawn) [Example 29, 3-{4-[3-(2-Methoxyphenoxyethylamino)-2-hydroxypropoxy]phenyl}-2-(4-(methoxy)phenyl)acrylic acid methyl ester] returned a GI50 of 1.9 µM. In addition, in assay [3], the inhibition – broadly, the change of the read-out against control, counted positive when it falls – at 10 µM was determined as 64.2%.

In assay [2], `COC(=O)/C(=C/c1ccc(OCC(O)CNCc2ccccc2)cc1)c1ccc(OC)cc1` (stereo not drawn) [Example 30, 3-{4-[3-(Benzylamino)-2-hydroxypropoxy]phenyl}-2-(4-(methoxy)phenyl)acrylic acid methyl ester] showed a GI50 of 1.4 µM. In addition, the inhibition at 10 µM in assay [3] was determined as 27.8%.

Turning to `COC(=O)/C(=C/c1ccc(OCC(O)CNCc2ccccc2)cc1)c1cccs1` (stereo not drawn) [Example 31, 3-{4-[3-(Benzylamino)-2-hydroxypropoxy]phenyl}-2-(thiophen-2-yl)acrylic acid methyl ester], the GI50 in assay [2] amounted to 0.9 µM. The same compound came in with an inhibition at 10 µM in assay [3] of 2.1%.

Compound `COC(=O)/C(=C/c1ccc(OC)cc1OC)c1ccc(OCC(O)CNCc2ccc(OC)cc2OC)cc1` (stereo not drawn) [Example 32, 2-{4-[3-(2,4-Dimethoxybenzylamino)-2-hydroxypropoxy]phenyl}-3-(2,4-dimethoxyphenyl)acrylic acid methyl ester] displayed a GI50 in assay [2] of 0.6 µM. Testing at 10 µM in assay [3] gave an inhibition of 70.5%.

With `COC(=O)/C(=C/c1ccc(OC)cc1OC)c1ccc(OCC(O)CNCCOc2ccccc2OC)cc1` (stereo not drawn) [Example 33, 2-{4-[3-(2-Methoxyphenoxyethylamino)-2-hydroxypropoxy]phenyl}-3-(2,4-dimethoxyphenyl)acrylic acid methyl ester], it took 2.6 µM to inhibit growth in assay [2] by half (GI50). The compound also showed an inhibition at 10 µM in assay [3] of 61.2%.

In assay [2], `COC(=O)/C(=C/c1ccc(OCC(O)CNCCOc2ccccc2OC)cc1)c1cccs1` (stereo not drawn) [Example 34, 3-{4-[3-(2-Methoxyphenoxyethylamino)-2-hydroxypropoxy]phenyl}-2-(thiophen-2-yl)acrylic acid methyl ester] yielded a GI50 of 18.7 µM. The inhibition at 10 µM in assay [3] was found to be 41.9%.

In the case of `COC(=O)/C(=C/c1ccc(OCC(O)CNCc2ccccc2)cc1)c1ccc(F)cc1` (stereo not drawn) [Example 36, 3-{4-[3-(Benzylamino)-2-hydroxypropoxy]phenyl}-2-(4-fluorophenyl)acrylic acid methyl ester], the GI50 in assay [2] was found to be 12 µM. Moreover, the inhibition at 10 µM in assay [3] came out at 27.9%.

In the case of `COC(=O)/C(=C/c1ccc(OCC(O)CNCc2ccccc2)cc1)c1ccc(C)cc1` (stereo not drawn) [Example 39, 3-{4-[3-(Benzylamino)-2-hydroxypropoxy]phenyl}-2-(4-methylphenyl)acrylic acid methyl ester], in assay [2], the GI50 stood at 6.3 µM. 10 µM produced 41.8% inhibition in assay [3].

In the case of `COC(=O)/C(=C/c1ccc(OCC(O)CNCCOc2ccccc2OC)cc1)c1ccc(F)cc1` (stereo not drawn) [Example 41, 3-{4-[3-(2-Methoxyphenoxyethylamino)-2-hydroxypropoxy]phenyl}-2-(4-fluorophenyl)acrylic acid methyl ester], in assay [2], the GI50 amounted to 11.4 µM. Further, the inhibition at 10 µM in assay [3] came to 68%.

Compound `COC(=O)/C(=C/c1ccc(OCC(O)CNCCOc2ccccc2OC)cc1)c1ccccc1` (stereo not drawn) [Example 42, 3-{4-[3-(2-Methoxyphenoxyethylamino)-2-hydroxypropoxy]phenyl}-2-phenylacrylic acid methyl ester] returned a GI50 in assay [2] of 12 µM. Moreover, the inhibition at 10 µM in assay [3] stood at 13%.

For the compound `COC(=O)/C(=C/c1ccc(OCC(O)CNCc2ccccc2)cc1)c1ccccc1` (stereo not drawn) [Example 44, 3-{4-[3-(Benzylamino)-2-hydroxypropoxy]phenyl}-2-phenylacrylic acid methyl ester], in assay [2], the GI50 was 2.1 µM. This compound came in with an inhibition at 10 µM in assay [3] of 7.7%.

`COC(=O)/C(=C/c1ccccc1OCC(O)CNCc1ccc(OC)cc1OC)c1ccc(OC)cc1` (stereo not drawn) [Example 45, 3-{2-[3-(2,4-Dimethoxybenzylamino)-2-hydroxypropoxy]phenyl}-2-(4-methoxyphenyl)acrylic acid methyl ester] gave a GI50 in assay [2] of 1.2 µM. The inhibition at 10 µM in assay [3] turned out to be 56%.

On to `COC(=O)/C(=C/c1ccccc1OCC(O)CNCCOc1ccccc1OC)c1ccc(OC)cc1` (stereo not drawn) [Example 46, 3-{2-[3-(2-Methoxyphenoxyethylamino)-2-hydroxypropoxy]phenyl}-2-(4-methoxyphenyl)acrylic acid methyl ester], for which the GI50 in assay [2] was 1.6 µM. This compound came in with an inhibition at 10 µM in assay [3] of 48%.

For the compound `COC(=O)/C(=C/c1ccc(OCC(O)CNCc2ccc(OC)cc2OC)cc1)c1cccc(Cl)c1` (stereo not drawn) [Example 47, 3-{4-[3-(2,4-Dimethoxybenzylamino)-2-hydroxypropoxy]phenyl}-2-(3-chlorophenyl)acrylic acid methyl ester], the GI50 in assay [2] was found to be 1.3 µM. In assay [3], this compound returned an inhibition at 10 µM of 59%.

Turning to `COC(=O)/C(=C/c1ccc(OCC(O)CNCCOc2ccccc2OC)cc1)c1cccc(Cl)c1` (stereo not drawn) [Example 48, 3-{4-[3-(2-Methoxyphenoxyethylamino)-2-hydroxypropoxy]phenyl}-2-(3-chlorophenyl)acrylic acid methyl ester], halving of growth in assay [2] (GI50) required 1.6 µM. In addition, at 10 µM the inhibition in assay [3] was 9%.

For `COC(=O)/C(=C/c1ccc(OCC(O)CNCCOc2ccccc2OC)cc1)c1cccc(F)c1` (stereo not drawn) [Example 51, 3-{4-[3-(2-Methoxyphenoxyethylamino)-2-hydroxypropoxy]phenyl}-2-(3-fluorophenyl)acrylic acid methyl ester], in assay [1], testing at 10 µM gave an inhibition of 49.9%.

The compound `COC(=O)/C(=C/c1ccc(OCC(O)CNCc2ccc(OC)cc2OC)cc1)c1ccccc1F` (stereo not drawn) [Example 53, 3-{4-[3-(2,4-Dimethoxybenzylamino)-2-hydroxypropoxy]phenyl}-2-(2-fluorophenyl)acrylic acid methyl ester] returned an inhibition at 10 µM in assay [1] of 61.4%.

For `COC(=O)/C(=C/c1ccc(C)s1)c1ccc(OCC(O)CNCc2ccc(OC)cc2OC)cc1` (stereo not drawn) [Example 56, 2-{4-[3-(2,4-Dimethoxybenzylamino)-2-hydroxypropoxy]phenyl}-3-(5-methylthiophen-2-yl)acrylic acid methyl ester], testing at 10 µM in assay [1] gave an inhibition of 56.2%.

Compound `COC(=O)/C(=C/c1ccc(C)s1)c1ccc(OCC(O)CNCCOc2ccccc2OC)cc1` (stereo not drawn) [Example 57, 2-{4-[3-(2-Methoxyphenoxyethylamino)-2-hydroxypropoxy]phenyl}-3-(5-methylthiophen-2-yl)acrylic acid methyl ester] displayed an inhibition at 10 µM in assay [1] of 66.5%.
